Values quoted from earlier work as cited in patent publication EP0523845A2, “New benzodiazepine analogs” (MERCK & CO. INC., priority 1991, dated 1993).

Conditions: cited from Deschodt-Lanckman et al., Reg. Pept. 2, 15 (1981)

## CSCC[C@H](NC(=O)[C@H](Cc1ccc(OS(=O)(=O)O)cc1)NC(=O)[C@@H](N)CC(=O)O)C(=O)NCC(=O)N[C@@H](Cc1c[nH]c2ccccc12)C(=O)N[C@@H](CCSC)C(=O)N[C@@H](CC(=O)O)C(=O)N[C@@H](Cc1ccccc1)C(N)=O [CCK-8s, H-Asp-Tyr(S03H)-Met-Gly-Trp-Met-Asp-Phe-NH2]
  half-life: less than 1 hour
